# Results reported in ChEMBL document CHEMBL3769377, “A synthesis, in silico, in vitro and in vivo study of thieno[2,3-b]pyridine anticancer analogues” (Medchemcomm, 2015).
# Columns and labels:
# [1] = molecular target: Hepatocyte growth factor receptor (Homo sapiens) (UniProt P08581); assay: Inhibition of human recombinant MET assessed as residual activity at 10 uM after 1 hr by qPCR analysis relative to control
# [2] = molecular target: Vascular endothelial growth factor receptor 2 (Homo sapiens) (UniProt P35968); assay: Inhibition of human recombinant VEGFR2 assessed as residual activity at 10 uM after 1 hr by qPCR analysis relative to control
# [3] = molecular target: Casein kinase I isoform delta (Homo sapiens) (UniProt P48730); assay: Inhibition of human recombinant CSNK1D assessed as residual activity at 10 uM after 1 hr by qPCR analysis relative to control
# [4] = molecular target: Mitogen-activated protein kinase 10 (Homo sapiens) (UniProt P53779); assay: Inhibition of human recombinant JNK3 assessed as residual activity at 10 uM after 1 hr by qPCR analysis relative to control
# [5] = molecular target: Cyclin-dependent kinase 11B (Homo sapiens) (UniProt P21127); assay: Inhibition of human recombinant CDK11 assessed as residual activity at 10 uM after 1 hr by qPCR analysis relative to control
# [6] = molecular target: Inhibitor of nuclear factor kappa-B kinase subunit beta (Homo sapiens) (UniProt O14920); assay: Inhibition of human recombinant IKKbeta assessed as residual activity at 10 uM after 1 hr by qPCR analysis relative to control
# [7] = molecular target: Tyrosine-protein kinase ZAP-70 (Homo sapiens) (UniProt P43403); assay: Inhibition of human recombinant ZAP70 assessed as residual activity at 10 uM after 1 hr by qPCR analysis relative to control
# [8] = molecular target: Serine/threonine-protein kinase ULK2 (Homo sapiens) (UniProt Q8IYT8); assay: Inhibition of human recombinant ULK2 assessed as residual activity at 10 uM after 1 hr by qPCR analysis relative to control
# [9] = molecular target: Mitogen-activated protein kinase 8 (Homo sapiens) (UniProt P45983); assay: Inhibition of human recombinant JNK1 assessed as residual activity at 10 uM after 1 hr by qPCR analysis relative to control
# [10] = molecular target: Serine/threonine-protein kinase 32C (Homo sapiens) (UniProt Q86UX6); assay: Inhibition of human recombinant YANK3 assessed as residual activity at 10 uM after 1 hr by qPCR analysis relative to control
# [11] = molecular target: Tyrosine-protein kinase BTK (Homo sapiens) (UniProt Q06187); assay: Inhibition of human recombinant BTK assessed as residual activity at 10 uM after 1 hr by qPCR analysis relative to control
# [12] = system: Mast/stem cell growth factor receptor Kit (Homo sapiens), P10721 [V559D,T670I]; assay: Inhibition of human recombinant KIT V559D/T670I double mutant assessed as residual activity at 10 uM after 1 hr by qPCR analysis relative to control
# [13] = molecular target: High affinity nerve growth factor receptor (Homo sapiens) (UniProt P04629); assay: Inhibition of human recombinant TRKA assessed as residual activity at 10 uM after 1 hr by qPCR analysis relative to control
# [14] = molecular target: Serine/threonine-protein kinase B-raf (Homo sapiens) (UniProt P15056); assay: Inhibition of human recombinant BRAF assessed as residual activity at 10 uM after 1 hr by qPCR analysis relative to control
# [15] = molecular target: Fibroblast growth factor receptor 2 (Homo sapiens) (UniProt P21802); assay: Inhibition of human recombinant FGFR2 assessed as residual activity at 10 uM after 1 hr by qPCR analysis relative to control
# [16] = molecular target: MAP kinase-interacting serine/threonine-protein kinase 2 (Homo sapiens) (UniProt Q9HBH9); assay: Inhibition of human recombinant MKNK2 assessed as residual activity at 10 uM after 1 hr by qPCR analysis relative to control
# [17] = system: Mus musculus; assay: Toxicity in athymic nude/beige mouse xenografted with human 786-O cells assessed as dark circles around eyes at 0.16 mg/kg, ip qd after 24 days; assay type: organism-based, 786-0; settings: in vivo, 576 h
# [18] = molecular target: Bone morphogenetic protein receptor type-2 (Homo sapiens) (UniProt Q13873); assay: Inhibition of human recombinant BMPR2 assessed as residual activity at 10 uM after 1 hr by qPCR analysis relative to control
# [19] = molecular target: Mitogen-activated protein kinase 11 (Homo sapiens) (UniProt Q15759); assay: Inhibition of human recombinant p38beta assessed as residual activity at 10 uM after 1 hr by qPCR analysis relative to control
# [20] = molecular target: MAP kinase-interacting serine/threonine-protein kinase 1 (Homo sapiens) (UniProt Q9BUB5); assay: Inhibition of human recombinant MKNK1 assessed as residual activity at 10 uM after 1 hr by qPCR analysis relative to control
# [21] = molecular target: Inhibitor of nuclear factor kappa-B kinase subunit alpha (Homo sapiens) (UniProt O15111); assay: Inhibition of human recombinant IKKalpha assessed as residual activity at 10 uM after 1 hr by qPCR analysis relative to control
# [22] = molecular target: Tyrosine-protein kinase JAK2 (Homo sapiens) (UniProt O60674); assay: Inhibition of human recombinant JAK2 (JH1 domain-catalytic) assessed as residual activity at 10 uM after 1 hr by qPCR analysis relative to control
# [23] = molecular target: Mitogen-activated protein kinase kinase kinase 4 (Homo sapiens) (UniProt Q9Y6R4); assay: Inhibition of human recombinant MAP3K4 assessed as residual activity at 10 uM after 1 hr by qPCR analysis relative to control
# [24] = molecular target: Ephrin type-A receptor 2 (Homo sapiens) (UniProt P29317); assay: Inhibition of human recombinant EPHA2 assessed as residual activity at 10 uM after 1 hr by qPCR analysis relative to control
# [25] = molecular target: Serine/threonine-protein kinase PLK1 (Homo sapiens) (UniProt P53350); assay: Inhibition of human recombinant PLK1 assessed as residual activity at 10 uM after 1 hr by qPCR analysis relative to control
# [26] = molecular target: RAC-beta serine/threonine-protein kinase (Homo sapiens) (UniProt P31751); assay: Inhibition of human recombinant AKT2 assessed as residual activity at 10 uM after 1 hr by qPCR analysis relative to control
# [27] = molecular target: Testis-specific serine/threonine-protein kinase 1 (Homo sapiens) (UniProt Q9BXA7); assay: Inhibition of human recombinant TSSK1B assessed as residual activity at 10 uM after 1 hr by qPCR analysis relative to control
# [28] = molecular target: Tyrosyl-DNA phosphodiesterase 1 (Homo sapiens, UniProt Q9NUW8); assay: Inhibition of recombinant human N-terminal His-tagged TDP1 (1824 bp) expressed in Escherichia coli BL21(DE3) cells using 5'-(5,6 FAM-AAC GTC AGG GTC TTC C-BHQ1)-3' as substrate measured every 1 min by RT-PCR method
# [29] = molecular target: Mitogen-activated protein kinase kinase kinase 9 (Homo sapiens) (UniProt P80192); assay: Inhibition of human recombinant MLK1 assessed as residual activity at 10 uM after 1 hr by qPCR analysis relative to control
# [30] = molecular target: MAP kinase-activated protein kinase 2 (Homo sapiens) (UniProt P49137); assay: Inhibition of human recombinant MAPKAPK2 assessed as residual activity at 10 uM after 1 hr by qPCR analysis relative to control
# Sequence of Tyrosyl-DNA phosphodiesterase 1 (Q9NUW8 whole entry): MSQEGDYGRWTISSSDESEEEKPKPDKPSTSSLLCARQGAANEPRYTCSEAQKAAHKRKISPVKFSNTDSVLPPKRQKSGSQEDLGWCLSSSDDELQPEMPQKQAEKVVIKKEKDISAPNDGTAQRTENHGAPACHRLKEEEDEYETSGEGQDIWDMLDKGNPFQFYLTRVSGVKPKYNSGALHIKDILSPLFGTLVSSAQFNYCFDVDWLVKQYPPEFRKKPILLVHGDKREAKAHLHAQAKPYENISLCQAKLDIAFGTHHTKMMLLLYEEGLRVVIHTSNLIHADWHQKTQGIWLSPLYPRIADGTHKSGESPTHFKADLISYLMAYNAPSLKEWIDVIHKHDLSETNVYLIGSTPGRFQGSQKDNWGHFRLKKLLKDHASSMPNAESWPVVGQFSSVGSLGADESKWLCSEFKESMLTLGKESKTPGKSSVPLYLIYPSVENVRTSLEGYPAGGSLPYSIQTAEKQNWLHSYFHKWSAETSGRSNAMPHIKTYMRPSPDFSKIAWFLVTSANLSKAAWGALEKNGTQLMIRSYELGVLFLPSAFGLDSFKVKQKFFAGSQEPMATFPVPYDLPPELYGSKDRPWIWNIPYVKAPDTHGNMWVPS
# Sequence of MAP kinase-interacting serine/threonine-protein kinase 1 (Homo sapiens) (Q9BUB5 whole entry, looked up): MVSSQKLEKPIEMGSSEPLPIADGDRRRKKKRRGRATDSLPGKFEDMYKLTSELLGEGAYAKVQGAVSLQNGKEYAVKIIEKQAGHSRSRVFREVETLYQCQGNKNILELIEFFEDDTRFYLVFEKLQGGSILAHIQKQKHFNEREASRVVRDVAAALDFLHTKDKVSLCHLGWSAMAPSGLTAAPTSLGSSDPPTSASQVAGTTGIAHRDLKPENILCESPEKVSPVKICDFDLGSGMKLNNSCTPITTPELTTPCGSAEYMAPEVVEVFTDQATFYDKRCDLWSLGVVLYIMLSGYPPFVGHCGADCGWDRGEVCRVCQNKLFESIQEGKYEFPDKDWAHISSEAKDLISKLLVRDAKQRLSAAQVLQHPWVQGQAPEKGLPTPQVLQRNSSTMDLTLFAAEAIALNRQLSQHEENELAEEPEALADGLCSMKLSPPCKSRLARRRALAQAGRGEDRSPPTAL
# Sequence of Testis-specific serine/threonine-protein kinase 1 (Homo sapiens) (Q9BXA7 whole entry): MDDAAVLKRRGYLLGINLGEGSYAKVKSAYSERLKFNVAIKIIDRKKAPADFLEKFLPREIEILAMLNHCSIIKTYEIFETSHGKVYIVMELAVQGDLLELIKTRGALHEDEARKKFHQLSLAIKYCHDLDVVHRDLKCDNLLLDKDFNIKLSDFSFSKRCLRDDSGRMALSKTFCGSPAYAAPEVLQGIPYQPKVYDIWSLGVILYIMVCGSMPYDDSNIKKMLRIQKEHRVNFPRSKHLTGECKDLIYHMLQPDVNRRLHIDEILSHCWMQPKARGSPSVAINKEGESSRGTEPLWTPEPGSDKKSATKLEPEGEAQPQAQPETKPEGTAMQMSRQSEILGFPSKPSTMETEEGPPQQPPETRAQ
# Sequence of Inhibitor of nuclear factor kappa-B kinase subunit beta (Homo sapiens) (O14920 whole entry): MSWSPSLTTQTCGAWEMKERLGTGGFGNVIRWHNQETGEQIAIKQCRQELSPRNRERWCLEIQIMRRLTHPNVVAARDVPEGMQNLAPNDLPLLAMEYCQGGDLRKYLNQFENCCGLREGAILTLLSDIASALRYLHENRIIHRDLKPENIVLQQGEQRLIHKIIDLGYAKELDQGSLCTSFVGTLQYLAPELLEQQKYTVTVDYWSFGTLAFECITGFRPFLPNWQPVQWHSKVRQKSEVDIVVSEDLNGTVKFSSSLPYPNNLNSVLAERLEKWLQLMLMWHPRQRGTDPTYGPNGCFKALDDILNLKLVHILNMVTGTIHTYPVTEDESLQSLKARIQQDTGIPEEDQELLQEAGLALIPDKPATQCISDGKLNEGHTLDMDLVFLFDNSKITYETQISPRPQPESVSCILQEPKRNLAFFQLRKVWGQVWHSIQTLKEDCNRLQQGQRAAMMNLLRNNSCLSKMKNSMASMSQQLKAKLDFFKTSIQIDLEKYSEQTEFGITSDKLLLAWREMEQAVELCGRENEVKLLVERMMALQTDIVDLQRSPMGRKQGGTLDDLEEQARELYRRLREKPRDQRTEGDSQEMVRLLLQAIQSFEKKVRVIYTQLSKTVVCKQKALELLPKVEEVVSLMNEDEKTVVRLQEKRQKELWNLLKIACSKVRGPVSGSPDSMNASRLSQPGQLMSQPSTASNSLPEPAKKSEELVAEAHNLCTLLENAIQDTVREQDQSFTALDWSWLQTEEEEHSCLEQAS
# Sequence of Mitogen-activated protein kinase kinase kinase 4 (Homo sapiens) (Q9Y6R4 whole entry): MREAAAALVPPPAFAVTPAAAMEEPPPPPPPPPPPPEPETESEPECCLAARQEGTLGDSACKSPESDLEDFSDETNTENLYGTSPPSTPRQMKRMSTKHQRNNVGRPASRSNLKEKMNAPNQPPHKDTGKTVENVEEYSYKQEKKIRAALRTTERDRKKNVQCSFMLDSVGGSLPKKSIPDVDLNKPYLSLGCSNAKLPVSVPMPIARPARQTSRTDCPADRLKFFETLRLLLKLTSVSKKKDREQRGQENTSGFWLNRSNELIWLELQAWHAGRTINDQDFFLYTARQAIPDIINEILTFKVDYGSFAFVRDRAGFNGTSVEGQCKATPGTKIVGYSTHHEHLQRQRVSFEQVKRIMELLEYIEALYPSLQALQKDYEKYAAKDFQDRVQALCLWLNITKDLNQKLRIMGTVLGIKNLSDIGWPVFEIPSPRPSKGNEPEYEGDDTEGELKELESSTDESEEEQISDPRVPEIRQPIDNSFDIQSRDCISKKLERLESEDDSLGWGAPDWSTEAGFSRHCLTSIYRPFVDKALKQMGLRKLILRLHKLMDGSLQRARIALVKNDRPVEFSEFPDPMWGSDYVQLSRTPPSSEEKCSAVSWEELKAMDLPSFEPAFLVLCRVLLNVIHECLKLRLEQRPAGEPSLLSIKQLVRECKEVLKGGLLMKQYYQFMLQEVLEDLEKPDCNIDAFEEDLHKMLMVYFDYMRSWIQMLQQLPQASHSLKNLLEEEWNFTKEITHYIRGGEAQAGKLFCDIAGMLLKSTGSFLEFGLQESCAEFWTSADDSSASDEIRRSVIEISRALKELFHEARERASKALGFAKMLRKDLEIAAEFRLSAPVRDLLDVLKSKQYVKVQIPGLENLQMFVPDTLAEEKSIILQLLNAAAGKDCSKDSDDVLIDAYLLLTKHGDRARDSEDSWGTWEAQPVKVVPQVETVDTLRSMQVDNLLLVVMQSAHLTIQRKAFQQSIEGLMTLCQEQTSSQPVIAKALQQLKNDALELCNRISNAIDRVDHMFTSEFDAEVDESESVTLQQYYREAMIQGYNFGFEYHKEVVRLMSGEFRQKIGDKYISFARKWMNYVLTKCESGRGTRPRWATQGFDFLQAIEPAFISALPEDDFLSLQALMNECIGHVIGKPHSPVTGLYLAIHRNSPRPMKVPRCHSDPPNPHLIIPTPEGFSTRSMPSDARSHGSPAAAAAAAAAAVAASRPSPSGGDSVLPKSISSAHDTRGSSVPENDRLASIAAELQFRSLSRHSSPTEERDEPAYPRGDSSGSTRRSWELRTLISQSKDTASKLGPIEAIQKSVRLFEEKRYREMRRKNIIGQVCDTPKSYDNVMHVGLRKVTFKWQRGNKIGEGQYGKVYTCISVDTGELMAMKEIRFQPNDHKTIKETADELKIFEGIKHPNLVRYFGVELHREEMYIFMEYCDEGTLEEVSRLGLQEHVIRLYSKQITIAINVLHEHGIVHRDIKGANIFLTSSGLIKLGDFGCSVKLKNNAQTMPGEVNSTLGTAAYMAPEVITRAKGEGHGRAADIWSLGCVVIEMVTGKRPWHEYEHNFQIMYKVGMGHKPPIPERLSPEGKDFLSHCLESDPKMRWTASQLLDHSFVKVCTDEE
# Sequence of Mast/stem cell growth factor receptor Kit (Homo sapiens), P10721 [V559D,T670I] (P10721 whole entry V559D/T670I): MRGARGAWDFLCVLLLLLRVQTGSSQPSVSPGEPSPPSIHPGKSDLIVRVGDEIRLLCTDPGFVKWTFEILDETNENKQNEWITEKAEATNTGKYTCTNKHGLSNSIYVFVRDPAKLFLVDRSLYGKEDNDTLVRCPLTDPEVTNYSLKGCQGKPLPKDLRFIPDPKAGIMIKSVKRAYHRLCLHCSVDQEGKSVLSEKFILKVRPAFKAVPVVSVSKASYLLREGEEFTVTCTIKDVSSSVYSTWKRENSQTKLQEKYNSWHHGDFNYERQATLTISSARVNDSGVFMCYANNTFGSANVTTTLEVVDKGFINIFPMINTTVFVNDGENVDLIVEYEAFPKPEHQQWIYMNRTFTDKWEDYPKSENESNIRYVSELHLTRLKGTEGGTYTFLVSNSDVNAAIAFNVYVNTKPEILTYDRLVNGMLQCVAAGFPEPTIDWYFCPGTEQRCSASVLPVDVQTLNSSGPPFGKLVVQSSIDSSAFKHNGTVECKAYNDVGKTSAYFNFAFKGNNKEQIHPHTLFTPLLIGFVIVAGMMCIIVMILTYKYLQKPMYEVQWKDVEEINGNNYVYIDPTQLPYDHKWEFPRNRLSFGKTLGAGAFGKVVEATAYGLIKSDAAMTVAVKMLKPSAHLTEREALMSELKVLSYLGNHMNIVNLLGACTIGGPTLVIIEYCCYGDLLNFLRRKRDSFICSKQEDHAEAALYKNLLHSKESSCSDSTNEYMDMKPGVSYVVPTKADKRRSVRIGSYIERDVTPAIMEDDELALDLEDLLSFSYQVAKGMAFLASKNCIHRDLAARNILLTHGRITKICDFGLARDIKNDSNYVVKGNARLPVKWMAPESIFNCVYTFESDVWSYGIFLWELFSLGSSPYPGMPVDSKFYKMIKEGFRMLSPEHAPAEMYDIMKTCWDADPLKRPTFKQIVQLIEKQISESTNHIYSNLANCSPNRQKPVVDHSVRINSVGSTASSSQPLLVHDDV
compound,measurement,setting,value
Cc1c(Cl)cccc1NC(=O)c1sc2nc3c(cc2c1N)C(=O)CC3,Activity,[1],100%
same,Activity,[2],100%
same,Activity,[3],100%
same,Activity,[4],95%
same,Activity,[5],100%
same,Activity,[6],100%
same,Activity,[7],95%
same,Activity,[8],97%
same,Activity,[9],100%
same,Activity,[10],62%
same,Activity,[11],100%
same,Activity,[12],99%
same,Activity,[13],84%
same,Activity,[14],96%
same,Activity,[15],100%
same,Activity,[16],91%
same,Activity,[17],Toxic
same,Activity,[18],96%
same,Activity,[19],100%
same,Activity,[20],100%
same,Activity,[21],100%
same,Activity,[22],94%
same,Activity,[23],96%
same,Activity,[24],100%
same,Activity,[25],91%
same,Activity,[26],72%
same,Activity,[27],65%
same,IC50,[28],2200 nM
same,Activity,[29],99%
same,Activity,[30],100%
